Experimental data from patent US20220096516A1, “OLIGONUCLEOTIDE MOLECULE AND APPLICATION THEREOF IN TUMOR THERAPY” (Ractigen Therapeutics, priority 2019, published 2022).
d = 2'-deoxy (DNA); r = 2'-OH (RNA)

Test system: LHPP gene
Test: High-throughput screening of saRNAs targeting LHPP promoter: LHPP mRNA by one-step RT-qPCR in Huh7 cells
Format: cell-based, human
Details: 10 nM saRNA, 72 hours, relative to control (Mock)
Procedure: Human liver cancer cell line Huh7 was cultured in DMEM medium (Gibco), containing 10% of calf serum (Sigma-Aldrich) and 1% of penicillin/streptomycin (Gibco). The cells were cultured at 5% CO2 and 37° C. According to the instructions provided by the manufacturer, RNAiMax (Invitrogen, Carlsbad, Calif.) was used to transfect small activating RNAs at a concentration of 10 nM (unless otherwise specified).
At the end of transfection, the media were discarded, and each well was washed with 150 μL of PBS once. After discarding the PBS, 50 μL of cell lysis buffer (Takara) was added to each well and incubated at room temperature for 5 min. 1 μL of the resulted cell lysis was taken from each well and analyzed by qPCR on an ABI 7500 fast real-time PCR system (Applied Biosystems) using a one-step TB Green™ PrimeScrip™ RT-PCR kit II (Takara, RR086A) Each transfection sample was repeatedly amplified in 3 replicate wells.
Reaction conditions were as follows: reverse transcription reaction (stage 1): 5 min at 42° C., 10 s at 95° C.; PCR reaction (stage 2): 5 s at 95° C., 20 s at 60° C., 45 cycles of amplification. HPRT1 and TBP were used as internal reference genes. PCR primers used for amplifying LHPP, HPRT1 and TBP genes are shown in Table 2, wherein LHPP was amplified using the LHPP F1/R1 primer pair.
To calculate the relative expression level (Erel) of LHPP (target gene) in an saRNA-transfected sample relative to control treatment (Mock), the Ct values of the target gene and the two internal reference genes were substituted into formula 1
Erel=2^(CtT^m^-CtT^s^)/((2^(CtR1^m^-CtR1^s^)*2^(CtR2^m^-CtR2^s^))^(1/2))
wherein CtTm was the Ct value of the target gene from the control (Mock) sample; CtTs was the Ct value of the target gene from the saRNA-treated sample; CtR1m was the Ct value of the internal reference gene 1 from the control (Mock) sample; CtR1s was the Ct value of the internal reference gene 1 from the saRNA-treated sample; CtR2m was the Ct value of the internal reference gene 2 from the control (Mock) sample; and CtR2s was the Ct value of the internal reference gene 2 from the saRNA-treated sample.
In order to obtain saRNAs capable of activating LHPP transcription, Huh7 cells were transfected with each of the aforementioned 290 saRNAs with a transfection concentration of 10 nM, and 72 hours later, according to the same method as described above, the cells were lysed and analyzed by one-step RT-qPCR to obtain the relative (compared with the control (Mock)) expression level of LHPP gene for each saRNA-treated sample. […] The observed maximum activation and maximum inhibition is 3.46 fold and 0.49 fold, respectively, saRNAs with activating activity are referred to as activating saRNAs, and the saRNAs with inhibiting activity are referred to as inhibiting saRNAs.

Substance	Fold of changes in relative LHPP mRNA expression level [fold]	Fold of changes in relative LHPP mRNA expression level (log2)
RAG7-104: saRNA duplex; sense AAGCUUCCGAAAAGGACACTT (SEQ ID NO: 43), antisense GUGUCCUUUUCGGAAGCUUTT (SEQ ID NO: 207) (sugars from the 5' end r19 d2, backbone not given here)	1.41	0.50
RAG7-106: saRNA duplex; sense GAAAGCUUCCGAAAAGGACTT (SEQ ID NO: 150), antisense GUCCUUUUCGGAAGCUUUCTT (SEQ ID NO: 314) (sugars from the 5' end r19 d2, backbone not given here)	1.12	0.17
RAG7-107: saRNA duplex; sense AGAAAGCUUCCGAAAAGGATT (SEQ ID NO: 156), antisense UCCUUUUCGGAAGCUUUCUTT (SEQ ID NO: 320) (sugars from the 5' end r19 d2, backbone not given here)	1.11	0.15
RAG7-109: saRNA duplex; sense GAAGAAAGCUUCCGAAAAGTT (SEQ ID NO: 90), antisense CUUUUCGGAAGCUUUCUUCTT (SEQ ID NO: 254) (sugars from the 5' end r19 d2, backbone not given here)	1.24	0.31
RAG7-111: saRNA duplex; sense GGGAAGAAAGCUUCCGAAATT (SEQ ID NO: 117), antisense UUUCGGAAGCUUUCUUCCCTT (SEQ ID NO: 281) (sugars from the 5' end r19 d2, backbone not given here)	1.18	0.24
RAG7-112: saRNA duplex; sense UGGGAAGAAAGCUUCCGAATT (SEQ ID NO: 82), antisense UUCGGAAGCUUUCUUCCCATT (SEQ ID NO: 246) (sugars from the 5' end r19 d2, backbone not given here)	1.26	0.33
RAG7-113: saRNA duplex; sense CUGGGAAGAAAGCUUCCGATT (SEQ ID NO: 120), antisense UCGGAAGCUUUCUUCCCAGTT (SEQ ID NO: 284) (sugars from the 5' end r19 d2, backbone not given here)	1.18	0.24
RAG7-114: saRNA duplex; sense CCUGGGAAGAAAGCUUCCGTT (SEQ ID NO: 73), antisense CGGAAGCUUUCUUCCCAGGTT (SEQ ID NO: 237) (sugars from the 5' end r19 d2, backbone not given here)	1.28	0.36
RAG7-119: saRNA duplex; sense GAUCUCCUGGGAAGAAAGCTT (SEQ ID NO: 57), antisense GCUUUCUUCCCAGGAGAUCTT (SEQ ID NO: 221) (sugars from the 5' end r19 d2, backbone not given here)	1.35	0.43
RAG7-120: saRNA duplex; sense UGAUCUCCUGGGAAGAAAGTT (SEQ ID NO: 141), antisense CUUUCUUCCCAGGAGAUCATT (SEQ ID NO: 305) (sugars from the 5' end r19 d2, backbone not given here)	1.14	0.19
RAG7-121: saRNA duplex; sense CUGAUCUCCUGGGAAGAAATT (SEQ ID NO: 52), antisense UUUCUUCCCAGGAGAUCAGTT (SEQ ID NO: 216) (sugars from the 5' end r19 d2, backbone not given here)	1.36	0.45
RAG7-122: saRNA duplex; sense GCUGAUCUCCUGGGAAGAATT (SEQ ID NO: 103), antisense UUCUUCCCAGGAGAUCAGCTT (SEQ ID NO: 267) (sugars from the 5' end r19 d2, backbone not given here)	1.21	0.28
RAG7-123: saRNA duplex; sense CGCUGAUCUCCUGGGAAGATT (SEQ ID NO: 68), antisense UCUUCCCAGGAGAUCAGCGTT (SEQ ID NO: 232) (sugars from the 5' end r19 d2, backbone not given here)	1.30	0.38
RAG7-125: saRNA duplex; sense UCCGCUGAUCUCCUGGGAATT (SEQ ID NO: 55), antisense UUCCCAGGAGAUCAGCGGATT (SEQ ID NO: 219) (sugars from the 5' end r19 d2, backbone not given here)	1.36	0.44
RAG7-126: saRNA duplex; sense GUCCGCUGAUCUCCUGGGATT (SEQ ID NO: 45), antisense UCCCAGGAGAUCAGCGGACTT (SEQ ID NO: 209) (sugars from the 5' end r19 d2, backbone not given here)	1.39	0.48
RAG7-128: saRNA duplex; sense UUGUCCGCUGAUCUCCUGGTT (SEQ ID NO: 111), antisense CCAGGAGAUCAGCGGACAATT (SEQ ID NO: 275) (sugars from the 5' end r19 d2, backbone not given here)	1.20	0.26
RAG7-130: saRNA duplex; sense CUUUGUCCGCUGAUCUCCUTT (SEQ ID NO: 77), antisense AGGAGAUCAGCGGACAAAGTT (SEQ ID NO: 241) (sugars from the 5' end r19 d2, backbone not given here)	1.28	0.36
RAG7-132: saRNA duplex; sense CUCUUUGUCCGCUGAUCUCTT (SEQ ID NO: 4), antisense GAGAUCAGCGGACAAAGAGTT (SEQ ID NO: 168) (sugars from the 5' end r19 d2, backbone not given here)	1.86	0.90
RAG7-134: saRNA duplex; sense UGCUCUUUGUCCGCUGAUCTT (SEQ ID NO: 75), antisense GAUCAGCGGACAAAGAGCATT (SEQ ID NO: 239) (sugars from the 5' end r19 d2, backbone not given here)	1.28	0.36
RAG7-137: saRNA duplex; sense UCCUGCUCUUUGUCCGCUGTT (SEQ ID NO: 151), antisense CAGCGGACAAAGAGCAGGATT (SEQ ID NO: 315) (sugars from the 5' end r19 d2, backbone not given here)	1.12	0.16
